Assay results as given in US20160122320A1, “USEFUL COMBINATIONS OF MONOBACTAM ANTIBIOTICS WITH BETA-LACTAMASE INHIBITORS” (Basilea Pharmaceutica AG, priority 2005, published 2016).
Where a name gives a salt, the structure may show the parent alone. Blank lines part the entries; values can stand above or below the molecule they belong to.

Experiments:
Experiment in all cases: MIC, NCCLS broth microdilution
Format in all cases: cell-based
[1] = tested on: Klebsiella pneumoniae CF104; conditions: for MIC of antibiotic at fixed inhibitor concentration (4 mg/L): MIC of antibiotic compound 1 with the labelled bridged monobactam of formula II and clavulanate, 4 mg/L each
Acinetobacter sp. J2 = conditions: for MIC of antibiotic at fixed inhibitor concentration (4 mg/L): Acinetobacter sp. J2, MIC of antibiotic compound 1 with the labelled bridged monobactam of formula II and clavulanate, 4 mg/L each
[2] = tested on: Pseudomonas aeruginosa 1973E; conditions: for MIC of antibiotic at fixed inhibitor concentration (4 mg/L): MIC of antibiotic compound 1 with the labelled bridged monobactam of formula II and clavulanate, 4 mg/L each
Procedure: Antimicrobial activity of the compounds and of their combinations was determined against a selection of organisms according to the standard procedures described by the National Committee for Clinical Laboratory Standards (National Committee for Clinical Laboratory. Standards (2000). Methods for Dilution Antimicrobial Susceptibility Tests for Bacteria That Grow Aerobically-Fifth Edition: Approved Standard M7-A5. NCCLS, Wayne, Pa., USA).
In all cases the final concentration of DMSO incubated with the bacteria is less than or equal to 1%. […] Plates were incubated overnight at an appropriate temperature (30° C. or 37° C.) and optical densities assessed by eye. The MIC value is defined as the lowest compound concentration completely inhibiting visible growth of the test organism. When combinations between compounds of formula I with compounds of formula II and are evaluated the compounds of formula I are tested in dilution series as described above while the compounds of formula II and III-XIII were present in all wells at a constant concentration of 4 μg/mL each.

[3] = tested on: Stenotrophomonas malthophilia 1AC736; conditions: for MIC of antibiotic at fixed inhibitor concentration (4 mg/L): Stenotrophomonas malthophilia 1AC736, MIC of antibiotic compound 1 with the labelled bridged monobactam of formula II and clavulanate, 4 mg/L each
Enterobacter cloacae P99 = conditions: for MIC of antibiotic at fixed inhibitor concentration (4 mg/L): MIC of antibiotic compound 1 with the labelled bridged monobactam of formula II and clavulanate, 4 mg/L each
[4] = tested on: Pseudomonas aeruginosa MK1184; conditions: for MIC of antibiotic at fixed inhibitor concentration (4 mg/L): MIC of antibiotic compound 1 with the labelled bridged monobactam of formula II and clavulanate, 4 mg/L each
Serratia marcescens S6 = conditions: for MIC of antibiotic at fixed inhibitor concentration (4 mg/L): MIC of antibiotic compound 1 with the labelled bridged monobactam of formula II and clavulanate, 4 mg/L each

- MIC of antibiotic at fixed inhibitor concentration (4 mg/L) [1]: 1 µg/mL
- MIC of antibiotic at fixed inhibitor concentration (4 mg/L) (Acinetobacter sp. J2): 8 µg/mL
- MIC of antibiotic at fixed inhibitor concentration (4 mg/L) [2]: 4 µg/mL
- MIC of antibiotic at fixed inhibitor concentration (4 mg/L) [3]: 0.125 µg/mL
- MIC of antibiotic at fixed inhibitor concentration (4 mg/L) (Enterobacter cloacae P99): 32 µg/mL
- MIC of antibiotic at fixed inhibitor concentration (4 mg/L) [4]: 8 µg/mL
- MIC of antibiotic at fixed inhibitor concentration (4 mg/L) (Serratia marcescens S6): 0.125 µg/mL
Compound: Nc1ccc[n+](CC(=O)N2CC[C@@H]3[C@H]2C(=O)N3S(=O)(=O)[O-])c1 [Compound 107, (1S,5R)-2-[2-(3-aminopyridinium)acetyl]-7-oxo-2,6-diazabicyclo[3.2.0]heptane-6-sulfonate, inner salt]

- MIC of antibiotic at fixed inhibitor concentration (4 mg/L) [1]: 0.5 µg/mL
- MIC of antibiotic at fixed inhibitor concentration (4 mg/L) (Acinetobacter sp. J2): 4 µg/mL
- MIC of antibiotic at fixed inhibitor concentration (4 mg/L) [2]: 4 µg/mL
- MIC of antibiotic at fixed inhibitor concentration (4 mg/L) [3]: 0.125 µg/mL
- MIC of antibiotic at fixed inhibitor concentration (4 mg/L) (Enterobacter cloacae P99): 16 µg/mL
- MIC of antibiotic at fixed inhibitor concentration (4 mg/L) [4]: >32 µg/mL
- MIC of antibiotic at fixed inhibitor concentration (4 mg/L) (Serratia marcescens S6): 0.25 µg/mL
Compound: COc1cc(CNC(=O)N2CC[C@@H]3[C@H]2C(=O)N3S(=O)(=O)[O-])on1.[Na+] [Compound 313]

- MIC of antibiotic ([1]; antibiotic alone, no inhibitor): >32 µg/mL
- MIC of antibiotic at fixed inhibitor concentration of 4 mg/L ([1]; with 102 and clavulanate): 0.5 µg/mL
- MIC of antibiotic at fixed inhibitor concentration of 4 mg/L ([1]; with 102 and sulbactam): 2 µg/mL
- MIC of antibiotic at fixed inhibitor concentration of 4 mg/L ([1]; with 323 and sulbactam): 2 µg/mL
- MIC of antibiotic (Acinetobacter sp. J2; Acinetobacter baumannii J2, antibiotic alone, no inhibitor): >32 µg/mL
- MIC of antibiotic at fixed inhibitor concentration of 4 mg/L (Acinetobacter sp. J2; Acinetobacter baumannii J2, with 102 and clavulanate): >32 µg/mL
- MIC of antibiotic at fixed inhibitor concentration of 4 mg/L (Acinetobacter sp. J2; Acinetobacter baumannii J2, with 102 and sulbactam): 2 µg/mL
- MIC of antibiotic at fixed inhibitor concentration of 4 mg/L (Acinetobacter sp. J2; Acinetobacter baumannii J2, with 323 and sulbactam): 2 µg/mL
- MIC of antibiotic ([2]; antibiotic alone, no inhibitor): 4 µg/mL
- MIC of antibiotic at fixed inhibitor concentration of 4 mg/L ([2]; with 102 and clavulanate): 8 µg/mL
- MIC of antibiotic at fixed inhibitor concentration of 4 mg/L ([2]; with 102 and sulbactam): 8 µg/mL
- MIC of antibiotic at fixed inhibitor concentration of 4 mg/L ([2]; with 323 and sulbactam): 8 µg/mL
- MIC of antibiotic ([3]; Stenotrophomonas maltophilia 1AC736, antibiotic alone, no inhibitor): 1 µg/mL
- MIC of antibiotic at fixed inhibitor concentration of 4 mg/L ([3]; Stenotrophomonas maltophilia 1AC736, with 102 and clavulanate): 0.5 µg/mL
- MIC of antibiotic at fixed inhibitor concentration of 4 mg/L ([3]; Stenotrophomonas maltophilia 1AC736, with 102 and sulbactam): 1 µg/mL
- MIC of antibiotic at fixed inhibitor concentration of 4 mg/L ([3]; Stenotrophomonas maltophilia 1AC736, with 323 and sulbactam): 1 µg/mL
- MIC of antibiotic (Enterobacter cloacae P99; antibiotic alone, no inhibitor): >32 µg/mL
- MIC of antibiotic at fixed inhibitor concentration of 4 mg/L (Enterobacter cloacae P99; with 102 and clavulanate): 0.25 µg/mL
- MIC of antibiotic at fixed inhibitor concentration of 4 mg/L (Enterobacter cloacae P99; with 102 and sulbactam): 8 µg/mL
- MIC of antibiotic at fixed inhibitor concentration of 4 mg/L (Enterobacter cloacae P99; with 323 and sulbactam): 8 µg/mL
- MIC of antibiotic ([4]; antibiotic alone, no inhibitor): >32 µg/mL
- MIC of antibiotic at fixed inhibitor concentration of 4 mg/L ([4]; with 102 and clavulanate): 8 µg/mL
- MIC of antibiotic at fixed inhibitor concentration of 4 mg/L ([4]; with 102 and sulbactam): 4 µg/mL
- MIC of antibiotic at fixed inhibitor concentration of 4 mg/L ([4]; with 323 and sulbactam): 8 µg/mL
- MIC of antibiotic (Serratia marcescens S6; antibiotic alone, no inhibitor): 32 µg/mL
- MIC of antibiotic at fixed inhibitor concentration of 4 mg/L (Serratia marcescens S6; with 102 and clavulanate): 1 µg/mL
- MIC of antibiotic at fixed inhibitor concentration of 4 mg/L (Serratia marcescens S6; with 102 and sulbactam): 8 µg/mL
- MIC of antibiotic at fixed inhibitor concentration of 4 mg/L (Serratia marcescens S6; with 323 and sulbactam): 8 µg/mL
Compound: C[C@H]1[C@H](NC(=O)/C(=N\OCc2cc(=O)c(O)cn2O)c2nc(N)sc2Cl)C(=O)N1OS(=O)(=O)O [Compound 29, (3S,4S)-3-{(2Z)-2-(2-amino-5-chloro(1,3-thiazol-4-yl))-3-[(1,5-dihydroxy-4-oxo(2-hydropyridyl))methoxy]-3-azaprop-2-enoylamino}-4-methyl-2-oxoazetidinyl hydroxysulfonate]

- MIC of antibiotic at fixed inhibitor concentration (4 mg/L) [1]: 0.5 µg/mL
- MIC of antibiotic at fixed inhibitor concentration (4 mg/L) (Acinetobacter sp. J2): 16 µg/mL
- MIC of antibiotic at fixed inhibitor concentration (4 mg/L) [2]: 8 µg/mL
- MIC of antibiotic at fixed inhibitor concentration (4 mg/L) [3]: 0.125 µg/mL
- MIC of antibiotic at fixed inhibitor concentration (4 mg/L) (Enterobacter cloacae P99): 8 µg/mL
- MIC of antibiotic at fixed inhibitor concentration (4 mg/L) [4]: >32 µg/mL
- MIC of antibiotic at fixed inhibitor concentration (4 mg/L) (Serratia marcescens S6): 0.25 µg/mL
Compound: O=C(Nc1cccc(O)c1)N1CC[C@@H]2[C@H]1C(=O)N2S(=O)(=O)[O-].[Na+] [Compound 317]
